System: CCRF-CEM cells
Experiment: Time-dependent antiproliferative activity assay (MTS)
Assay type: cell-based, human
Conditions: drug 5 µM, [(WR)5C]-GdNPs 50 µM, 72 h incubation, MTS 490 nm, triplicate (n = 3)
Experimental: Antiproliferative activities of several anticancer drugs, including epirubicin, cisplatin, gemcitabine, etoposide, carboplatin and camptothecin, were evaluated in the presence and absence of [(WR)5C]-GdNPs in CCRF-CEM cells. Different time periods, including 24, 48 and 72 h, were selected. The CellTiter 96 aqueous one solution cell proliferation assay kit (Promega, Madison, WI, USA) was used for the assay. The CCRF-CEM cells (5 × 10^4) were seeded in 100 µL of the media. The cells then placed in each well of the 96-well culture plate. The cells were incubated with drugs alone and [(WR)5C]-GdNPs-loaded drugs at a similar condition in triplicates. To confirm the results, DMSO (1% in water) was used as a control. To entrap the drug, the physical mixing method was used. A calculated volume of the drug solution was mixed with the desired volume of an aqueous solution of [(WR)5C]-GdNPs physically to obtain a final concentration of the drug (5 μM) and the [(WR)5C]-GdNPs (50 μM). The mixture was vortexed until the solution became homogeneous and clear. The mixture was incubated for 30 min at room temperature before adding to the cells to obtain optimized performance. The incubation of cells with their treatments was carried out at 37 °C for 24–72 h. The cell viability assay was performed by adding 20 μL of CellTiter 96 aqueous solution. The cells were incubated for another hour with the MTS reagent. The formazan absorbance was measured at 490 nm by a microplate reader. The percentage of cell survival was calculated as previously reported.
Several anticancer drugs such as epirubicin, cisplatin, gemcitabine, etoposide, carboplatin and camptothecin were evaluated for their antiproliferative activities at different time periods, including 24, 48 and 72 h. […] The improved antiproliferative activity of cisplatin and carboplatin could be due to the chelating of the thiol group of cysteine with these anticancer agents or binding of metals to peptides as GdNPs. […]

How did the “enhancement of antiproliferative potency in the presence of [(WR)5C]-GdNPs” value (“enhancement of antiproliferative potency” below) turn out when `COc1cccc2c1C(=O)c1c(O)c3c(c(O)c1C2=O)C[C@@](O)(C(=O)CO)C[C@@H]3O[C@H]1C[C@H](N)[C@@H](O)[C@H](C)O1` [epirubicin] was run?
Its value is 6%.

How did the “enhancement of antiproliferative potency” value turn out when `CC[C@@]1(O)C(=O)OCc2c1cc1n(c2=O)Cc2cc3ccccc3nc2-1` [camptothecin] was run?
Its value is 8%.

With `COc1cc([C@@H]2c3cc4c(cc3[C@@H](O[C@@H]3O[C@@H]5CO[C@@H](C)O[C@H]5[C@H](O)[C@H]3O)[C@H]3COC(=O)[C@H]23)OCO4)cc(OC)c1O` [etoposide] as the compound, how does the “enhancement of antiproliferative potency” value read?
The value was 2%.
